# Measurements taken from patent US20230192772A1, “ANTIMICROBIAL PEPTIDES AND USES THEREOF” (SORBONNE UNIVERSITE, priority 2016, published 2023).
# Columns and labels:
# Test in all cases: MIC/MBC (Example 10, MH medium)
# Assay type in all cases: cell-based
# [1] = system: Enterococcus faecalis CIP A186; details: Table 4
# Procedure: (§1) The MIC is determined using a growth inhibition test in liquid medium. The MIC is defined as being the lowest peptide concentration capable of inhibiting the bacterial strain tested, after incubation for 18 h at 37° C. The test was carried out in a sterile microtitration plate containing 96 wells. A series of increasing concentrations of each peptide (0.2 to 100 µM) was prepared beforehand in sterile MilliQ water. In each well, 10 µL of peptide was incubated with 90 µL of bacterial suspension (10^7 cfu/mL) in yeast extract-free LB medium. The microplate was incubated at 37° C. for 18 h. The bacterial growth was evaluated by measuring the OD at 620 nm using a plate reader.
# (§2) The negative growth inhibition control was obtained by replacing the solution containing the peptide by sterile MilliQ water. The positive control suitable for completely inhibiting the growth of the bacterial strains was obtained by replacing the solution containing the peptide by 10 µL of formaldehyde.
# (§3) The results are interpreted by calculating the percentage of bacterial growth in each well according to the formula:
# (§4) %Growth = (OD well - OD of T0)/(OD of T100-OD of T0)*100 where
# (§5) • OD of T100 = OD of growth control (bacterial suspension free from sample under test, 100% growth), • OD of T0 = OD of sterility control (culture medium + bacterium + 10 µL formaldehyde, 0% growth) and • OD well = OD of well for which it is sought to calculate the growth percentage (bacterial suspension + peptide under test).
# (§6) The MBC is defined as being the minimum peptide concentration leaving no surviving bacteria of the inoculum after incubation at 37° C. for 24 hours. This test consists of smearing the contents of the well wherein the peptide has inhibited bacterial growth on a Petri dish (LB agar), followed by incubation for 24 h at 37° C.
# (§7) A 10 mL preculture in Muller-Hinton (MH) medium is prepared by inoculating a colony of the bacterial strain of interest. The preculture is incubated at 37° C. under stirring overnight. The culture is subcultured to 1:100 under the same conditions. The culture concentration is evaluated by measuring the turbidity at 600 nm (OD600 nm 1.0 = 5 × 10^8 CFU/mL for E. coli (Gram-negative bacteria) and 1.5 × 10^8 CFU/mL for S. aureus (Gram-positive bacteria). Once the exponential growth phase (OD600 nm = 0.3 - 0.7) has been achieved, the cultures are diluted in MH medium so as to obtain 10^6 CFU/mL (final inoculum concentration).
# (§8) The MIC and the MBC were determined as per the protocol described in part 2.1 of Example 2.
# [2] = system: Listeria monocytogenes SOR 100; details: Table 4
# Procedure: as §1, §2, §3, §4, §5, §6, §7, §8
# [3] = system: Klebsiella oxytoca CIP 7932; details: Table 4
# Procedure: as §1, §2, §3, §4, §5, §6, §7, §8
# [4] = system: Escherichia coli P7 (ESBL); details: Table 4
# Procedure: as §1, §2, §3, §4, §5, §6, §7, §8
# [5] = system: Yersinia ruckeri ATCC 29473; details: Table 4
# Procedure: as §1, §2, §3, §4, §5, §6, §7, §8
# [6] = system: Pseudomonas aeruginosa ATCC 9027
# Procedure: as §1, §2, §3, §4, §5, §6, §7, §8
# [7] = system: Vibrio parahemolyticus IFREMER 01/252; details: Table 4
# Procedure: as §1, §2, §3, §4, §5, §6, §7, §8
# [8] = system: Staphylococcus aureus ST 1065; details: Table 4
# Procedure: as §1, §2, §3, §4, §5, §6, §7, §8
# [9] = system: Klebsiella pneumoniae CIP 52.211; details: Table 4
# Procedure: as §1, §2, §3, §4, §5, §6, §7, §8
# [10] = system: Staphylococcus aureus ATCC 6538
# Procedure: as §1, §2, §3, §4, §5, §6, §7, §8
# [11] = system: Kocuria rhizophila ATCC 9341; details: Table 4
# Procedure: as §1, §2, §3, §4, §5, §6, §7, §8
# Escherichia coli K12 = details: Table 4
# Procedure: as §1, §2, §3, §4, §5, §6, §7, §8
# Escherichia coli ML35p = details: Table 4
# Procedure: as §1, §2, §3, §4, §5, §6, §7, §8
# [12] = system: Enterococcus faecalis CIP 103015
# Procedure: as §1, §2, §3, §4, §5, §6, §7, §8
# [13] = system: Escherichia coli ATCC 8739
# Procedure: as §1, §2, §3, §4, §5, §6, §7, §8
# [14] = system: Staphylococcus aureus MRSA; details: Table 4
# Procedure: as §1, §2, §3, §4, §5, §6, §7, §8
# [15] = system: Salmonella enterica CIP 8297; details: Table 4
# Procedure: as §1, §2, §3, §4, §5, §6, §7, §8
# [16] = system: Lactococcus garviae ATCC 43921; details: Table 4
# Procedure: as §1, §2, §3, §4, §5, §6, §7, §8
# [17] = system: Pseudomonas aeruginosa ATCC 27853; details: Table 4
# Procedure: as §1, §2, §3, §4, §5, §6, §7, §8
# [18] = system: Staphylococcus epidermidis BM 3302; details: Table 4
# Procedure: as §1, §2, §3, §4, §5, §6, §7, §8
# [19] = Table 4, Pseudomonas aeruginosa ATCC 9027
# [20] = Table 5, P. aeruginosa ATCC 9027
# [21] = Table 4, Staphylococcus aureus ATCC 6538
# [22] = Table 4, Enterococcus faecalis CIP 103015
# [23] = Table 5, E. faecalis CIP 103015
# [24] = Table 4, Escherichia coli ATCC 8739
compound,measurement,setting,value
CC[C@H](C)[C@H](NC(=O)CN)C(=O)NCC(=O)N[C@@H](C)C(=O)N[C@H](C(=O)N[C@@H](CC(C)C)C(=O)N[C@@H](CCCCN)C(=O)N[C@H](C(=O)N[C@@H](CC(C)C)C(=O)N[C@H](C(=O)N[C@H](C(=O)NCC(=O)N[C@@H](CC(C)C)C(=O)N1CCC[C@H]1C(=O)N[C@@H](C)C(=O)N[C@@H](CC(C)C)C(=O)N[C@H](C(=O)N[C@@H](CO)C(=O)N[C@@H](Cc1c[nH]c2ccccc12)C(=O)N[C@H](C(=O)N[C@@H](CCCCN)C(=O)N[C@@H](CCCNC(=N)N)C(=O)N[C@@H](CCCCN)C(=O)N[C@@H](CCCNC(=N)N)C(=O)N[C@@H](CCC(N)=O)C(=O)N[C@@H](CCC(N)=O)C(N)=O)[C@@H](C)CC)[C@@H](C)CC)[C@@H](C)O)[C@@H](C)O)C(C)C)C(C)C [Melittin],MBC,[1],12.5 µM
same,MIC,[1],12.5 µM
same,MBC,[2],3.12 µM
same,MIC,[2],1.5 µM
same,MBC,[3],50 µM
same,MIC,[3],25 µM
same,MBC,[4],6.25 µM
same,MIC,[4],6.25 µM
same,MBC,[5],12.5 µM
same,MIC,[5],6.25 µM
same,MBC,[6]; [19],5 µM
same,MIC,[6]; [19],5 µM
same,MBC,[6]; [20],5 µM
same,MIC,[6]; [20],5 µM
same,MBC,[7],> 50 µM
same,MIC,[7],> 50 µM
same,MBC,[8],10 µM
same,MIC,[8],10 µM
same,MBC,[9],10 µM
same,MIC,[9],10 µM
same,MBC,[10]; [21],5 µM
same,MIC,[10]; [21],5 µM
same,MBC,"[10]; Table 5, S. aureus ATCC 6538",5 µM
same,MIC,"[10]; Table 5, S. aureus ATCC 6538",5 µM
same,MBC,[11],0.8 µM
same,MIC,[11],0.8 µM
same,MBC,Escherichia coli K12,10 µM
same,MIC,Escherichia coli K12,10 µM
same,MBC,Escherichia coli ML35p,10 µM
same,MIC,Escherichia coli ML35p,10 µM
same,MBC,[12]; [22],1.25 µM
same,MIC,[12]; [22],1.25 µM
same,MBC,[12]; [23],1.2 µM
same,MIC,[12]; [23],1.2 µM
same,MBC,[13]; [24],2.5 µM
same,MIC,[13]; [24],2.5 µM
same,MBC,"[13]; Table 5, E. coli ATCC 8739",2.5 µM
same,MIC,"[13]; Table 5, E. coli ATCC 8739",2.5 µM
same,MBC,[14],12.5 µM
same,MIC,[14],6.25 µM
same,MBC,[15],> 50 µM
same,MIC,[15],50 µM
same,MBC,[16],25 µM
same,MIC,[16],6.25 µM
same,MBC,[17],> 50 µM
same,MIC,[17],50 µM
same,MBC,[18],10 µM
same,MIC,[18],10 µM
